Experimental data taken from patent publication US6762186B2, “Substituted imidazoles as dual histamine H1 and H3 agonists or antagonists” (Schering Corporation, priority 2000, dated 2004).

Columns and labels:
histamine H1 receptor = molecular target: T1, histamine H1 receptor (Rattus norvegicus, UniProt P31390); assay: H1-Receptor Binding Assay ([3H]pyrilamine, rat brain membranes); conditions: for Ki: Cheng-Prusoff from IC50, HCl salt; for inhibition at 1 µg/mL: HCl salt
T1 construct: The tissue source was male Sprague-Dawley rat brain; tissue Rockland Corporation, Gilbertsville, Pa; host or cells: male Sprague-Dawley rat brain membranes
Excerpt: General Procedure for H1-Receptor Binding Assay
The procedure used was based on that disclosed in V. T. Tran et al, “Histamine H1 receptors identified in mammalian brain membranes with [H-3]mepyramine”, Proc. Natl. Acad. Sci. U.S.A. 75 (1978) 6290-6294.
I. Tissue preparation protocol for histamine H1 receptor binding assay:
1. The tissue source was male Sprague-Dawley rat brain. These were purchased stripped and frozen (available from Rockland Corporation, Gilbertsville, Pa.). The buffer used was ice-cold 50 mM Tris-HCl, pH 7.5. (The pH was determined at 25° C.)
2. The brains were spread out on plastic wrap on the benchtop and allowed to thaw for 10-15 min. After this, everything was kept ice-cold.
3. Two brains were put in each 50 ml round bottom centrifuge tube and 25 ml of buffer was added. Then they were broken up with a Polytron (from Brinkmann Instruments, Westbury, N.Y.) equipped with a PT-10 tip at setting 6 for 30 sec.
4. The volume in the tube was brought up to 45 ml and mixed and the particulate material was centrifuged at 1000×g (3000 rpm, SS-34 rotor) for 10 min to remove nuclei and unbroken cells.
5. Pellets were discarded and the supernatants were centrifuged 10 min at 50,000×g (20,000 rpm, SS-34 rotor).
6. The high-speed pellets were resuspended in a volume of Tris buffer equal to the original ([…]), the contents of all tubes were pooled, and a sample was taken for BCA protein assay. The material was aliquotted, 45 ml per round-bottom tube, and the resuspension was recentrifuged. The yield of protein was approximately 20 mg/brain, so there was about 40 mg of protein per tube.
7. Pellets were frozen at −80° C.
II. H1 Histamine receptor binding assay:
1. The compounds for assay were independently solubilized at 1 mg/ml DMSO by vortexing, or if necessary by sonication. The first dilution, 100-fold, was made in 50 mM Tris-HCl, pH 7.5, at room temperature. The three or four subsequent ten-fold serial dilutions were made in 1% DMSO/50 mM Tris-HCl, pH 7.5. Drug solutions and assay plates were kept at room temperature during the course of the assay set up.
2. Test compounds were assayed at four or five concentrations: 1, 0.1, 0.01, 0.001, and 0.0001 μg/ml. Twenty μl of drug solution was pipeted into each of three wells.
3. [^3H]Pyrilamine was diluted approximately 2000-fold with ice-cold […] Tris-HCl, pH 7.5 (to a working concentration of 20-25 nM), and put on ice.
4. A frozen tissue pellet was thawed in a 25° C. water bath, resuspended in 50 mM Tris-HCl, pH 7.5, at 1.7-2 mg/ml by brief break-up on the Polytron, and put on ice.
5. Twenty μl of diluted [^3H]pyrilamine was added to each well.
6. One hundred fifty μl of tissue suspension was added to each well.
7. The top of the plate was covered and it was placed in a 25° C. shaking water bath (about 60 oscillations/min) for 30 min.
8. Samples were filtered on a Tomtec Mach 2 harvester (available from Tomtec Corporation, Orange, Conn.) through a GF/B filter mat (from Wallac, Inc., Gaithersburg, Md.) presoaked in 0.3% polyethylenimine. Each sample was thrice washed with ice-cold 50 mM Tris-HCl, pH 7.5 dried 20 sec on the Tomtec, and dried 3-4 min in a microwave oven on a paper towel. The filter was impregnated with MELTILEX brand wax scintillant (from Wallac Corporation) and counted on a Betaplate scintillation counter (from Wallac Corporation).
9. Specific binding was determined as the difference between total and nonspecific binding. The percent inhibition in the presence of inhibitor or standard was determined using the formula:
[1-(sample binding-nonspecific binding)/specific binding]×100
For compounds that inhibit more than 50% at 1 μg/ml, an IC50 value was interpolated from proximate concentrations. […]

H3 receptors = molecular target: T2, H3 receptors (Cavia porcellus, UniProt Q9JI35); assay: H3-Receptor Binding Assay ([3H]R-α-methyl histamine or [3H]Nα-methyl histamine, guinea pig brain membranes); conditions: for Ki: HCl salt of the indicated compounds; for inhibition at 2 µg/mL: final concentration 2 μg/ml, HCl salt
T2 construct: The source of the H3 receptors in this experiment was guinea pig brain; from tissue; host or cells: guinea pig brain membranes
Method: General Procedure for H3-Receptor Binding Assay
The source of the H3 receptors in this experiment was guinea pig brain. The animals weighed 400-600 g. The brain tissue was homogenized with a solution of 50 mM Tris, pH 7.5. The final concentration of tissue in the homogenization buffer was 10% w/v. The homogenates were centrifuged at 1,000×g for 10 min. in order to remove clumps of tissue and debris. The resulting supernatants were then centrifuged at 50,000×g for 20 min. in order to sediment the membranes, which were next washed three times in homogenization buffer (50,000×g for 20 min. each). The membranes were frozen and stored at −70° C. until needed.
All compounds to be tested were dissolved in DMSO and then diluted into the binding buffer (50 mM Tris, pH 7.5) such that the final concentration was 2 μg/ml with 0.1% DMSO. Membranes were then added (400 μg of protein) to the reaction tubes. The reaction was started by the addition of 3 nM [^3H]R-α-methyl histamine (8.8 Ci/mmol) or 3 nM [^3H]N^α-methyl histamine (80 Ci/mmol) and continued under incubation at 30° C. for 30 min. Bound ligand was separated from unbound ligand by filtration, and the amount of radioactive ligand bound to the membranes was quantitated by liquid scintillation spectrometry. All incubations were performed in duplicate and the standard error was always less than 10%. Compounds that inhibited more than 70% of the specific binding of radioactive ligand to the receptor were serially diluted to determine a Ki (nM). The results are given in Table 1 for the HCl salt of the indicated compounds.

T1 sequence (P31390 whole entry): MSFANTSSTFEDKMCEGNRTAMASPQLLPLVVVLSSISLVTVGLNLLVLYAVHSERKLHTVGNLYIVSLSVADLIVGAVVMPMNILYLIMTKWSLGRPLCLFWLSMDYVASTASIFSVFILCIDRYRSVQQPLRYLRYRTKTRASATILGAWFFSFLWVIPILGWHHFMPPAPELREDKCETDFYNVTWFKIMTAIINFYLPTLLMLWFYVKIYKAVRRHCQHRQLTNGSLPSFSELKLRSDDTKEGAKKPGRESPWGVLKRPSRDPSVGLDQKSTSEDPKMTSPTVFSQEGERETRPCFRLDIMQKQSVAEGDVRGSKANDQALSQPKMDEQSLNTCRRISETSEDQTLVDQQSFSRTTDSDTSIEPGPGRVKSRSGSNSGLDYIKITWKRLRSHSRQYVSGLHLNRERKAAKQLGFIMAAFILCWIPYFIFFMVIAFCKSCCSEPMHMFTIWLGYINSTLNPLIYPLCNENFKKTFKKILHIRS
T2 sequence (Q9JI35 whole entry): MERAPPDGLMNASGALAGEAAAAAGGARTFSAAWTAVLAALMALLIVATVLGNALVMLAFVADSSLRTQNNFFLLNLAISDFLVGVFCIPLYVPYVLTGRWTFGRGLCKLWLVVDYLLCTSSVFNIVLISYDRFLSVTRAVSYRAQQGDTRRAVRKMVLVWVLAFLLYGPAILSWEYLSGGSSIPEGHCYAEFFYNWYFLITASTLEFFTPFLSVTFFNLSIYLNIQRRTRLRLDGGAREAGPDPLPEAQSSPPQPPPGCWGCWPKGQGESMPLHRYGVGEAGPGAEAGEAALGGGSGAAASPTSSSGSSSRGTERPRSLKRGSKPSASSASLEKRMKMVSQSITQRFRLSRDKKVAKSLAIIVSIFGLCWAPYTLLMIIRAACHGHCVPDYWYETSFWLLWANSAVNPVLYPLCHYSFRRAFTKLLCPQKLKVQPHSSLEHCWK

Row | SMILES | Ki (histamine H1 receptor) [nM] | Ki (H3 receptors) [nM] | inhibition at 2 µg/mL (H3 receptors) [%] | inhibition at 1 µg/mL (histamine H1 receptor) [%]
1 | Clc1ccc(C(c2ccccn2)N2CCN(Cc3c[nH]cn3)CC2)cc1 (stereo not shown) | 5 | 73 |  | 
2 | Clc1ccc(C(c2ccccc2)N2CCN(Cc3c[nH]cn3)CC2)cc1 (stereo not shown) | 1.7 | 101 |  | 
3 | O=C(CC(c1ccccc1)c1ccccc1)N1CCN(Cc2c[nH]cn2)CC1 |  |  | 15 | 
4 | c1ccc(C(CCN2CCN(Cc3c[nH]cn3)CC2)c2ccccc2)cc1 | 80 |  | 62 | 
5 | Clc1ccc(C(c2ccccn2)N2CCN(CCCc3c[nH]cn3)CC2)cc1 (stereo not shown) | 40 | 66 |  | 
6 | O=C(COCCN1CCN(C(c2ccccc2)c2ccc(Cl)cc2)CC1)NCCCCc1c[nH]cn1 (stereo not shown) | 11 | 39 |  | 
7 | Clc1ccc(C(c2ccccn2)N2CCN(CCCCCCCNCCCCc3c[nH]cn3)CC2)cc1 (stereo not shown) | 18.5 | 21 |  | 
8 | Clc1ccc(C(c2ccccn2)N2CCN(CCCCc3c[nH]cn3)CC2)cc1 (stereo not shown) | 5 | 39 |  | 
9 | Clc1ccc(C(=C2CCN(CCCCc3c[nH]cn3)CC2)c2ccccn2)cc1 | 4.5 | 3 |  | 
10 | Clc1ccc(C(=C2CCN(CCCCCc3c[nH]cn3)CC2)c2ccccn2)cc1 | 4.5 | 8 |  | 
11 | O=C(C(c1ccc(Cl)cc1)c1ccc(Cl)cc1)N1CCC(CCc2c[nH]cn2)C1 (stereo not shown) |  | 9.5 |  | 2
12 | Clc1ccc(C(CCN2CCN(CCCCc3c[nH]cn3)CC2)c2ccccn2)cc1 (stereo not shown) | 21 | 7 |  | 
13 | Clc1ccc(C(=C2CCN(CCCCCCc3c[nH]cn3)CC2)c2ccccn2)cc1 | 3 | 11 |  | 
14 | c1ccc(C(c2ccccc2)C2CCN(CCCCCc3c[nH]cn3)CC2)cc1 | 28 | 19 |  | 
15 | Clc1ccc(C(CCN2CCN(Cc3c[nH]cn3)CC2)c2ccccn2)cc1 (stereo not shown) | 25 | 130 |  | 
16 | O=C(CC(c1ccc(Cl)cc1)c1ccccn1)N1CCN(CCCCc2c[nH]cn2)CC1 (stereo not shown) |  | 32 |  | 14
17 | Clc1ccc(C(CN2CCC(CCc3c[nH]cn3)C2)c2ccc(Cl)cc2)cc1 (stereo not shown) |  | 25 |  | 18
18 | O=C(C(c1ccccc1)c1ccccc1)N1CCC(Cc2c[nH]cn2)CC1 | 50 | 66 |  | 
19 | O=C(CC(c1ccc(Cl)cc1)c1ccccn1)N1CCC(Cc2c[nH]cn2)CC1 (stereo not shown) | 19 | 0.3 |  | 
